# From patent US9474279B2, “Methods of controlling insects” (Syngenta Participations AG, priority 2012, dated 2016)
# System: Nilaparvata lugens (Brown Plant Hopper)
# Assay: Nilaparvata lugens (Brown Plant Hopper) rice seedling spray test, mortality
# Assay type: in vivo
# Conditions: rate 12.5 ppm; N3 nymphs; mortality 6-12 days after treatment
# Protocol: Nilaparvata lugens (Brown Plant Hopper) Rice seedlings are treated with the diluted test solutions in a spray chamber. After drying, plants are infested with 20 N3 nymphs (2 replicates). 6-12 days after the treatment samples are checked for mortality
row,SMILES,Control/%
1,CCN1OC[C@@H](NC(=O)c2ccc(C3=NO[C@@](c4cc(Cl)cc(Br)c4)(C(F)(F)F)C3)cc2C)C1=O [Compound A16],95%
2,CCN1OC[C@@H](NC(=O)c2ccc(C3=NO[C@@](c4cc(Cl)cc(Cl)c4)(C(F)(F)F)C3)cc2C(F)(F)F)C1=O [Compound A28],0%
3,CCN1OCC(NC(=O)c2ccc(C3=COC(c4cc(Cl)cc(Cl)c4)(C(F)(F)F)C3)cc2C)C1=O (mixture of isomers) [Compound C1],0%
4,Cc1cc(C2=NOC(c3cc(Cl)cc(Cl)c3)(C(F)(F)F)C2)ccc1C(=O)NC1CON(C)C1=O (mixture of isomers) [Compound A22],98%
5,Cc1cc(C2=NO[C@@](c3cc(Cl)cc(Br)c3)(C(F)(F)F)C2)ccc1C(=O)N[C@@H]1CON(CC(F)(F)F)C1=O [Compound A17],100%
6,Cc1cc(C2=NO[C@@](c3cc(Cl)cc(Cl)c3)(C(F)(F)F)C2)ccc1C(=O)N[C@@H]1CON(CC(F)F)C1=O [Compound A12],100%
7,Cc1cc(C2=NOC(c3cc(Cl)cc(Cl)c3)(C(F)(F)F)C2)ccc1C(=O)NC1CON(CC(F)F)C1=O (mixture of isomers) [Compound A20],100%
8,Cc1cc(C2=NO[C@@](c3cc(Cl)c(Cl)c(Cl)c3)(C(F)(F)F)C2)ccc1C(=O)N[C@@H]1CON(CC(F)(F)F)C1=O [Compound A13],75%
9,CCN1OC[C@@H](NC(=O)c2ccc(C3=NO[C@@](c4cc(Cl)cc(Cl)c4)(C(F)(F)F)C3)cc2Br)C1=O [Compound A34],98%
10,Cc1cc(C2=NOC(c3cc(Cl)cc(Cl)c3)(C(F)(F)F)C2)ccc1C(=O)NC1CON(C)C1=O (mixture of isomers) [Compound A1],93%
11,Cc1cc(C2=NOC(c3cc(Cl)cc(Cl)c3)(C(F)(F)F)C2)ccc1C(=O)NC1CON(CC(F)(F)F)C1=O (mixture of isomers) [Compound A19],100%
12,CCN1OCC(NC(=O)c2ccc(C3=NOC(c4cc(C(F)(F)F)c(Cl)c(C(F)(F)F)c4)(C(F)(F)F)C3)cc2C)C1=O (mixture of isomers) [Compound A10],100%
13,CCN1OC[C@@H](NC(=O)c2ccc(C3=NO[C@@](c4cc(Cl)c(F)c(Cl)c4)(C(F)(F)F)C3)cc2C)C1=O [Compound A24],75%
14,Cc1cc(C2=NOC(c3cc(Cl)cc(Cl)c3)(C(F)(F)F)C2)ccc1C(=O)NC1CON(C)C1=O (mixture of isomers) [Compound A5],0%
15,CCN1OC[C@@H](NC(=O)c2ccc(C3=NO[C@@](c4cc(Cl)c(Cl)c(Cl)c4)(C(F)(F)F)C3)cc2C)C1=O [Compound A35],93%
16,CCN1OCC(NC(=O)c2ccc(C3=NOC(c4cc(Cl)c(F)c(Cl)c4)(C(F)(F)F)C3)cc2C)C1=O (mixture of isomers) [Compound A8],100%
17,CCN1OCC(NC(=O)c2ccc(C3=NOC(c4cc(Cl)c(Br)c(Cl)c4)(C(F)(F)F)C3)cc2C)C1=O (mixture of isomers) [Compound A7],100%

# Same assay, conditions: rate 25 ppm; N3 nymphs; mortality 6-12 days after treatment
row,SMILES,Control/%
1,CCN1OC[C@@H](NC(=O)c2ccc(C3=NO[C@@](c4cc(Cl)cc(Br)c4)(C(F)(F)F)C3)cc2C)C1=O [Compound A16],97%
2,CCN1OC[C@@H](NC(=O)c2ccc(C3=NO[C@@](c4cc(Cl)cc(Cl)c4)(C(F)(F)F)C3)cc2C(F)(F)F)C1=O [Compound A28],50%
3,CCN1OCC(NC(=O)c2ccc(C3=COC(c4cc(Cl)cc(Cl)c4)(C(F)(F)F)C3)cc2C)C1=O (mixture of isomers) [Compound C1],15%
4,Cc1cc(C2=NOC(c3cc(Cl)cc(Cl)c3)(C(F)(F)F)C2)ccc1C(=O)NC1CON(C)C1=O (mixture of isomers) [Compound A22],100%
5,Cc1cc(C2=NO[C@@](c3cc(Cl)cc(Br)c3)(C(F)(F)F)C2)ccc1C(=O)N[C@@H]1CON(CC(F)(F)F)C1=O [Compound A17],100%
6,Cc1cc(C2=NO[C@@](c3cc(Cl)cc(Cl)c3)(C(F)(F)F)C2)ccc1C(=O)N[C@@H]1CON(CC(F)F)C1=O [Compound A12],100%
7,Cc1cc(C2=NOC(c3cc(Cl)cc(Cl)c3)(C(F)(F)F)C2)ccc1C(=O)NC1CON(CC(F)F)C1=O (mixture of isomers) [Compound A20],100%
8,Cc1cc(C2=NO[C@@](c3cc(Cl)c(Cl)c(Cl)c3)(C(F)(F)F)C2)ccc1C(=O)N[C@@H]1CON(CC(F)(F)F)C1=O [Compound A13],100%
9,CCN1OC[C@@H](NC(=O)c2ccc(C3=NO[C@@](c4cc(Cl)cc(Cl)c4)(C(F)(F)F)C3)cc2Br)C1=O [Compound A34],100%
10,Cc1cc(C2=NOC(c3cc(Cl)cc(Cl)c3)(C(F)(F)F)C2)ccc1C(=O)NC1CON(C)C1=O (mixture of isomers) [Compound A1],93%
11,Cc1cc(C2=NOC(c3cc(Cl)cc(Cl)c3)(C(F)(F)F)C2)ccc1C(=O)NC1CON(CC(F)(F)F)C1=O (mixture of isomers) [Compound A19],100%
12,CCN1OCC(NC(=O)c2ccc(C3=NOC(c4cc(C(F)(F)F)c(Cl)c(C(F)(F)F)c4)(C(F)(F)F)C3)cc2C)C1=O (mixture of isomers) [Compound A10],100%
13,CCN1OC[C@@H](NC(=O)c2ccc(C3=NO[C@@](c4cc(Cl)c(F)c(Cl)c4)(C(F)(F)F)C3)cc2C)C1=O [Compound A24],85%
14,Cc1cc(C2=NOC(c3cc(Cl)cc(Cl)c3)(C(F)(F)F)C2)ccc1C(=O)NC1CON(C)C1=O (mixture of isomers) [Compound A5],65%
15,CCN1OC[C@@H](NC(=O)c2ccc(C3=NO[C@@](c4cc(Cl)c(Cl)c(Cl)c4)(C(F)(F)F)C3)cc2C)C1=O [Compound A35],100%
16,CCN1OCC(NC(=O)c2ccc(C3=NOC(c4cc(Cl)c(F)c(Cl)c4)(C(F)(F)F)C3)cc2C)C1=O (mixture of isomers) [Compound A8],100%
17,CCN1OCC(NC(=O)c2ccc(C3=NOC(c4cc(Cl)c(Br)c(Cl)c4)(C(F)(F)F)C3)cc2C)C1=O (mixture of isomers) [Compound A7],100%

# Same assay, conditions: rate 50 ppm; N3 nymphs; mortality 6-12 days after treatment
row,SMILES,Control/%
1,CCN1OCC(NC(=O)c2ccc(C3=NOC(c4cc(Cl)c(F)c(Cl)c4)(C(F)(F)F)C3)cc2C)C1=O (mixture of isomers) [Compound A21],100%
2,CCN1OC[C@@H](NC(=O)c2ccc(C3=NO[C@@](c4cc(Cl)cc(Br)c4)(C(F)(F)F)C3)cc2C)C1=O [Compound A16],98%
3,CCN1OC[C@@H](NC(=O)c2ccc(C3=NO[C@@](c4cc(Cl)cc(Cl)c4)(C(F)(F)F)C3)cc2C(F)(F)F)C1=O [Compound A28],95%
4,CCN1OCC(NC(=O)c2ccc(C3=COC(c4cc(Cl)cc(Cl)c4)(C(F)(F)F)C3)cc2C)C1=O (mixture of isomers) [Compound C1],95%
5,Cc1cc(C2=NOC(c3cc(Cl)cc(Cl)c3)(C(F)(F)F)C2)ccc1C(=O)NC1CON(C)C1=O (mixture of isomers) [Compound A22],100%
6,Cc1cc(C2=NO[C@@](c3cc(Cl)cc(Br)c3)(C(F)(F)F)C2)ccc1C(=O)N[C@@H]1CON(CC(F)(F)F)C1=O [Compound A17],100%
7,Cc1cc(C2=NO[C@@](c3cc(Cl)cc(Cl)c3)(C(F)(F)F)C2)ccc1C(=O)N[C@@H]1CON(CC(F)F)C1=O [Compound A12],100%
8,Cc1cc(C2=NOC(c3cc(Cl)cc(Cl)c3)(C(F)(F)F)C2)ccc1C(=O)NC1CON(CC(F)F)C1=O (mixture of isomers) [Compound A20],100%
9,Cc1cc(C2=NO[C@@](c3cc(Cl)c(Cl)c(Cl)c3)(C(F)(F)F)C2)ccc1C(=O)N[C@@H]1CON(CC(F)(F)F)C1=O [Compound A13],98%
10,CCN1OC[C@@H](NC(=O)c2ccc(C3=NO[C@@](c4cc(Cl)cc(Cl)c4)(C(F)(F)F)C3)cc2Br)C1=O [Compound A34],100%
11,Cc1cc(C2=NOC(c3cc(Cl)cc(Cl)c3)(C(F)(F)F)C2)ccc1C(=O)NC1CON(C)C1=O (mixture of isomers) [Compound A1],98%
12,Cc1cc(C2=NOC(c3cc(Cl)cc(Cl)c3)(C(F)(F)F)C2)ccc1C(=O)NC1CON(CC(F)(F)F)C1=O (mixture of isomers) [Compound A19],100%
13,CCN1OCC(NC(=O)c2ccc(C3=NOC(c4cc(C(F)(F)F)c(Cl)c(C(F)(F)F)c4)(C(F)(F)F)C3)cc2C)C1=O (mixture of isomers) [Compound A10],100%
14,CCN1OC[C@@H](NC(=O)c2ccc(C3=NO[C@@](c4cc(Cl)c(F)c(Cl)c4)(C(F)(F)F)C3)cc2C)C1=O [Compound A24],98%
15,Cc1cc(C2=NOC(c3cc(Cl)cc(Cl)c3)(C(F)(F)F)C2)ccc1C(=O)NC1CON(C)C1=O (mixture of isomers) [Compound A5],98%
16,CCN1OC[C@@H](NC(=O)c2ccc(C3=NO[C@@](c4cc(Cl)c(Cl)c(Cl)c4)(C(F)(F)F)C3)cc2C)C1=O [Compound A35],98%
17,CCN1OCC(NC(=O)c2ccc(C3=NOC(c4cc(Cl)c(F)c(Cl)c4)(C(F)(F)F)C3)cc2C)C1=O (mixture of isomers) [Compound A8],100%
18,CCN1OCC(NC(=O)c2ccc(C3=NOC(c4cc(Cl)c(Br)c(Cl)c4)(C(F)(F)F)C3)cc2C)C1=O (mixture of isomers) [Compound A7],100%
